The structures appear in SMILES notation. Some results are limits rather than exact numbers.

A short description of series [1]: Inhibition of VEGFR mediated endocytosis in human SiHa cells incubated for 24 hrs under hypoxic condition by ELISA. In kind it is cell-based.
The test system of a further series is SiHa. The series is described as follows: Cytotoxicity against human SiHa cells assessed as inhibition of cell growth incubated for 24 hrs under normoxic condition by MTT assay. The series is classed as functional, cell-based. Background: Formazan colour is commonly taken as a measure of viable cells.
Series [2] is described as follows: Inhibition of HIF-1 transcriptional activity in human HCT-116 cells preincubated for 1 hr under normoxic condition followed by 24 hrs incubation under hypoxic condition by luciferase reporter assay. In kind it is cell-based. (In general: A reporter such as luciferase makes a cellular process visible.)
A short description of series [3]: Toxicity in Balb/c mouse xenografted with human SiHa cells assessed as reduction in body weight at 30 mg/kg,ip administration measured after 22 days. The series is classed as organism-based. The following applies: in vivo, 528 h, time 22 day.

In the case of `COC(=O)C1=CC[C@@]23CC[C@@H]([C@@](C)(/C=C/C=C(\C)C(=O)OCc4cn(Cc5ccccc5)nn4)OC2=O)[C@@]3(OC(C)=O)CC1`, the concentration for half-maximal inhibition (IC50) (in general, the concentration at which inhibition is half-maximal) is greater than 5 µM in series [1] and greater than 30 µM with SiHa.
The like results for `COC(=O)C1=CC[C@@]23CC[C@@H]([C@@](C)(/C=C/C=C(\C)C(=O)OCc4nnc(-c5ccccc5)o4)OC2=O)[C@@]3(OC(C)=O)CC1` were, in that order, greater than 5 µM and greater than 30 µM.
As to `COC(=O)C1=CC[C@@]23CC[C@@H]([C@@](C)(/C=C/C=C(\C)C(=O)OCc4cn(-c5ccccc5)nn4)OC2=O)[C@@]3(OC(C)=O)CC1`, the IC50 in series [1] was greater than 5 µM; in the series on SiHa, greater than 30 µM.
With `COC(=O)C1=CC[C@@]23CC[C@@H]([C@@](C)(/C=C/C=C(\C)C(=O)OCC(=O)Nc4ccc(OC)cc4)OC2=O)[C@@]3(OC(C)=O)CC1`, the figures for the 50% inhibitory concentration (IC50) (in series [1]; in the series on SiHa) were 1.86 µM and greater than 30 µM, respectively.
Turning to `COC(=O)C1=CC[C@@]23CC[C@@H]([C@@](C)(/C=C/C=C(\C)C(=O)NCc4cn(-c5ccccc5)nn4)OC2=O)[C@@]3(OC(C)=O)CC1`, the half-inhibitory concentration (IC50) is 2.91 µM in series [1] and greater than 30 µM in the series on SiHa.
The matching figures for `COC(=O)C1=CC[C@@]23CC[C@@H]([C@@](C)(/C=C/C=C(\C)C(=O)OCc4cn(Cc5ccc(OC)cc5)nn4)OC2=O)[C@@]3(OC(C)=O)CC1`: 1.75 µM and greater than 30 µM.
In series [2], `OC1CCN(CCOc2cccc(Cn3nc(-c4nc(-c5ccc(OC(F)(F)F)cc5)no4)c4ccccc43)c2)CC1` came in with an IC50 of 0.55 µM.
As for `COC(=O)C1=CC[C@@]23CC[C@@H]([C@@](C)(/C=C/C=C(\C)C(=O)OCCn4ncn(-c5ccc(OC)cc5)c4=O)OC2=O)[C@@]3(OC(C)=O)CC1`, the figures for the IC50 (in series [1]; in the series on SiHa) were greater than 5 µM and greater than 30 µM, respectively.
`COC(=O)C1=CC[C@@]23CC[C@@H]([C@@](C)(/C=C/C=C(\C)C(=O)OCc4cc(-c5ccc(Cl)cc5)no4)OC2=O)[C@@]3(OC(C)=O)CC1`: the IC50 was 4.44 µM in series [1] and greater than 30 µM with SiHa.
With `COC(=O)C1=CC[C@@]23CC[C@@H]([C@@](C)(/C=C/C=C(\C)C(=O)OCc4nnc(-c5ccc(Cl)cc5)o4)OC2=O)[C@@]3(OC(C)=O)CC1`, the IC50 in series [1] was greater than 5 µM; with SiHa it was greater than 30 µM.
The like results for `COC(=O)C1=CC[C@@]23CC[C@@H]([C@@](C)(/C=C/C=C(\C)C(=O)OCc4nc(-c5ccc(Cl)c(Cl)c5)no4)OC2=O)[C@@]3(OC(C)=O)CC1` were, in that order, 3.03 µM and greater than 30 µM.
The like results for `COC(=O)C1=CC[C@@]23CC[C@@H]([C@@](C)(/C=C/C=C(\C)C(=O)OCC(=O)Nc4ccc(Cl)cc4)OC2=O)[C@@]3(OC(C)=O)CC1` were, in that order, 4.38 µM and greater than 30 µM.
The like results for `COC(=O)C1=CC[C@@]23CC[C@@H]([C@@](C)(/C=C/C=C(\C)C(=O)OCC(=O)NCc4cn(-c5ccccc5)nn4)OC2=O)[C@@]3(OC(C)=O)CC1` were, in that order, 2.8 µM and greater than 30 µM.
Turning to `COC(=O)C1=CC[C@@]23CC[C@@H]([C@@](C)(/C=C/C=C(\C)C(=O)NCc4cn(-c5ccc(OC)cc5)nn4)OC2=O)[C@@]3(OC(C)=O)CC1`, the IC50 was 5.06 µM in series [1] and greater than 30 µM with SiHa.
Take `COC(=O)C1=CC[C@@]23CC[C@@H]([C@@](C)(/C=C/C=C(\C)C(=O)OCc4cn(Cc5ccc(F)cc5)nn4)OC2=O)[C@@]3(OC(C)=O)CC1`: the IC50 was 3.89 µM in series [1] and greater than 30 µM in the series on SiHa.
The like results for `COC(=O)C1=CC[C@@]23CC[C@@H]([C@@](C)(/C=C/C=C(\C)C(=O)OCc4nc(-c5ccc(Cn6cncn6)cc5)no4)OC2=O)[C@@]3(OC(C)=O)CC1` were, in that order, greater than 5 µM and greater than 30 µM.
The matching figures for `COC(=O)C1=CC[C@@]23CC[C@@H]([C@@](C)(/C=C/C=C(\C)C(=O)OCc4nc(-c5ccc(Cl)cc5)no4)OC2=O)[C@@]3(OC(C)=O)CC1`: 1.51 µM and greater than 30 µM.
The like results for `COC(=O)C1=CC[C@@]23CC[C@@H]([C@@](C)(/C=C/C=C(\C)C(=O)OCc4cn(Cc5cc(OC)c(OC)c(OC)c5)nn4)OC2=O)[C@@]3(OC(C)=O)CC1` were, in that order, 2.3 µM and greater than 30 µM.
As for `COC(=O)C1=CC[C@@]23CC[C@@H]([C@@](C)(/C=C/C=C(\C)C(=O)OCCn4ncn(-c5ccc(Cl)c(Cl)c5)c4=O)OC2=O)[C@@]3(OC(C)=O)CC1`, the half-inhibitory concentration (IC50) in series [1] was 1.17 µM; in the series with SiHa, greater than 30 µM.
Consider `COC(=O)C1=CC[C@@]23CC[C@@H]([C@@](C)(/C=C/C=C(\C)C(=O)OCc4cc(-c5ccccc5)no4)OC2=O)[C@@]3(OC(C)=O)CC1`, for which the IC50 in series [1] was greater than 5 µM; in the series with SiHa it was greater than 30 µM.
In the case of `COC(=O)C1=CC[C@@]23CC[C@@H]([C@@](C)(/C=C/C=C(\C)C(=O)OCc4cn(Cc5ccc(Cl)cc5)nn4)OC2=O)[C@@]3(OC(C)=O)CC1`, the 50% inhibitory concentration (IC50) in series [1] is 1.43 µM; in the series on SiHa it was greater than 30 µM.
The like results for `COC(=O)C1=CC[C@@]23CC[C@@H]([C@@](C)(/C=C/C=C(\C)C(=O)OCc4nnc(-c5ccc(OC)cc5)o4)OC2=O)[C@@]3(OC(C)=O)CC1` were, in that order, greater than 5 µM and greater than 30 µM.
Molecule `CN1CCN(CCOc2cccc(Cn3nc(-c4nc(-c5ccc(OC(F)(F)F)cc5)no4)c4ccccc43)c2)CC1` returned an IC50 in series [2] of 0.62 µM.
On to `COC(=O)C1=CC[C@@]23CC[C@@H]([C@@](C)(/C=C/C=C(\C)C(=O)OCCn4ncn(-c5ccc(F)cc5)c4=O)OC2=O)[C@@]3(OC(C)=O)CC1`, for which the IC50 was 2.38 µM in series [1] and greater than 30 µM in the series with SiHa.
Turning to `COC(=O)C1=CC[C@@]23CC[C@@H]([C@@](C)(/C=C/C=C(\C)C(=O)OCc4cn(-c5ccc(Cl)cc5)nn4)OC2=O)[C@@]3(OC(C)=O)CC1`, the values for the IC50 (in series [1]; with SiHa) were 2.15 µM and greater than 30 µM, respectively.
In the case of `COC(=O)C1=CC[C@@]23CC[C@@H]([C@@](C)(/C=C/C=C(\C)C(=O)OCc4nc(-c5ccc(OC)cc5)no4)OC2=O)[C@@]3(OC(C)=O)CC1`, the IC50 was 4.16 µM in series [1] and greater than 30 µM in the series with SiHa.
As to `COC(=O)C1=CC[C@@]23CC[C@@H]([C@@](C)(/C=C/C=C(\C)C(=O)OCc4cn(-c5ccc(OC)cc5)nn4)OC2=O)[C@@]3(OC(C)=O)CC1`, the IC50 in series [1] is 2.18 µM; in the series on SiHa, greater than 30 µM.
As for `COC(=O)C1=CC[C@@]23CC[C@@H]([C@@](C)(/C=C/C=C(\C)C(=O)NCc4cn(-c5ccc(F)cc5)nn4)OC2=O)[C@@]3(OC(C)=O)CC1`, the IC50 in series [1] was 4.14 µM; in the series with SiHa it was greater than 30 µM.
The like results for `COC(=O)C1=CC[C@@]23CC[C@@H]([C@@](C)(/C=C/C=C(\C)C(=O)OCc4cc(-c5ccc(OC)cc5)no4)OC2=O)[C@@]3(OC(C)=O)CC1` were, in that order, greater than 5 µM and greater than 30 µM.
The matching figures for `COC(=O)C1=CC[C@@]23CC[C@@H]([C@@](C)(/C=C/C=C(\C)C(=O)OCC(=O)NCc4cn(-c5ccc(OC)cc5)nn4)OC2=O)[C@@]3(OC(C)=O)CC1`: 3.4 µM and greater than 30 µM.
The like results for `COC(=O)C1=CC[C@@]23CC[C@@H]([C@@](C)(/C=C/C=C(\C)C(=O)NCc4cn(-c5ccc(Cl)cc5)nn4)OC2=O)[C@@]3(OC(C)=O)CC1` were, in that order, 3.74 µM and greater than 30 µM.
Turning to `COC(=O)C1=CC[C@@]23CC[C@@H]([C@@](C)(/C=C/C=C(\C)C(=O)NCc4cn(-c5ccc(Cl)c(Cl)c5)nn4)OC2=O)[C@@]3(OC(C)=O)CC1`, the 50% inhibitory concentration (IC50) in series [1] is greater than 5 µM; in the series with SiHa, greater than 30 µM.
For `COC(=O)C1=CC[C@@]23CC[C@@H]([C@@](C)(/C=C/C=C(\C)C(=O)OCCn4ncn(-c5ccccc5)c4=O)OC2=O)[C@@]3(OC(C)=O)CC1`, the IC50 in series [1] was 4.03 µM; with SiHa, greater than 30 µM.
In the case of `COC(=O)C1=CC[C@@]23CC[C@@H]([C@@](C)(/C=C/C=C(\C)C(=O)OCCn4ncn(-c5ccc(Cl)cc5)c4=O)OC2=O)[C@@]3(OC(C)=O)CC1`, the IC50 was 1.86 µM in series [1] and greater than 30 µM in the series with SiHa.
Consider `COC(=O)C1=CC[C@@]23CC[C@@H]([C@@](C)(/C=C/C=C(\C)C(=O)OCC(=O)Nc4ccccc4)OC2=O)[C@@]3(OC(C)=O)CC1`, for which the figures for the IC50 (in series [1]; with SiHa) were 4.03 µM and greater than 30 µM, respectively.
The like results for `COC(=O)C1=CC[C@@]23CC[C@@H]([C@@](C)(/C=C/C=C(\C)C(=O)OCCn4ncn(-c5ccc(OC)c(OC)c5)c4=O)OC2=O)[C@@]3(OC(C)=O)CC1` were, in that order, greater than 5 µM and greater than 30 µM.
Take `COC(=O)C1=CC[C@@]23CC[C@@H]([C@@](C)(/C=C/C=C(\C)C(=O)OCc4cn(Cc5ccc(Cl)c(Cl)c5)nn4)OC2=O)[C@@]3(OC(C)=O)CC1`: the half-inhibitory concentration (IC50) in series [1] is 2.79 µM; in the series on SiHa, greater than 30 µM.
In the case of `COC(=O)C1=CC[C@@]23CC[C@@H]([C@@](C)(/C=C/C=C(\C)C(=O)OCc4nc(-c5ccccc5)no4)OC2=O)[C@@]3(OC(C)=O)CC1`, the 50% inhibitory concentration (IC50) is 2 µM in series [1] and greater than 30 µM with SiHa.
Molecule `C[C@H]1[C@H](C)CC[C@]2(C(=O)OCCCn3ncn(-c4ccccc4)c3=O)CC[C@]3(C)C(=CC[C@@H]4[C@@]5(C)CCC(O)C(C)(C)[C@@H]5CC[C@]43C)[C@H]12` (stereo partly specified) showed a concentration for half-maximal inhibition (IC50) in series [2] of 36.9 µM.
Take `O=c1[nH]cc(F)c(=O)[nH]1` [FLUOROURACIL]: in series [3], the Activity entry is “Non-Toxic”.

The record behind these values is ChEMBL document CHEMBL6071153, “Design, synthesis, and evaluation of antitumor activity in Pseudolaric acid B Azole derivatives: Novel and potent angiogenesis inhibitor via regulation of the PI3K/AKT and MAPK mediated HIF-1/VEGF signaling pathway” (Eur J Med Chem, 2024).
